Results taken from patent US20240018157A1, “CYCLIC COMPOUNDS AND METHODS OF USING SAME” (Schrödinger, Inc., priority 2019, published 2024).

Molecular target: full-length MALT1 protein His-MALT1(1-824) (Homo sapiens (Human), UniProt Q9UDY8)
Test: MALT1 protease assay, Assay 2 (1 nM MALT1, Ac-LRSR-AMC substrate)
Type: biochemical
Conditions: 1 nM MALT1, 50 μM Ac-LRSR-AMC, 2 h pre-incubation, 8 hr incubation at RT
Protocol: MALT1 protease activity was assessed in an in vitro assay using a tetrapeptide as substrate and full-length MALT1 protein His-MALT1(1-824) purified from baculovirus-infected insect cells.
The final assay buffer includes 1 nM (Assay 2) or 2 nM (Assay 1) of MALT1 full-length protein, 50 μM Ac-LRSR-AMC substrate, 50 mM Tris pH 7.5, 600 mM Sodium Citrate, 1 mM DTT, 1 mM EDTA, and 0.05% BSA in 384-well plate format using black microtiter square well plates (Optiplate 384-F, Perkin Elmer).
Test compounds were dissolved in 100% DMSO at stock of 10 mM, with final DMSO concentration 0.1%. Test compounds were pre-incubated with MALT1 protein for 2 h at room temperature. Substrate was added after the pre-incubation and fluorescence signal was measured using Envision at excitation 355 nm and emission 460 nm after 8 hr incubation at RT.
The fluorescence units were transformed to percentage of remaining activity by using the high control (HC, median of fluorescence signal from wells containing MALT1 protein, substrate, and DMSO) and low control (LC, median of fluorescence signal from wells with substrate only) with the formula below: […]
IC50 and Hill coefficient were obtained using Graph Pad Prism (Graph Pad software, Inc, USA) with non-linear regression analysis.

full-length MALT1 protein His-MALT1(1-824), sequence (Q9UDY8 whole entry): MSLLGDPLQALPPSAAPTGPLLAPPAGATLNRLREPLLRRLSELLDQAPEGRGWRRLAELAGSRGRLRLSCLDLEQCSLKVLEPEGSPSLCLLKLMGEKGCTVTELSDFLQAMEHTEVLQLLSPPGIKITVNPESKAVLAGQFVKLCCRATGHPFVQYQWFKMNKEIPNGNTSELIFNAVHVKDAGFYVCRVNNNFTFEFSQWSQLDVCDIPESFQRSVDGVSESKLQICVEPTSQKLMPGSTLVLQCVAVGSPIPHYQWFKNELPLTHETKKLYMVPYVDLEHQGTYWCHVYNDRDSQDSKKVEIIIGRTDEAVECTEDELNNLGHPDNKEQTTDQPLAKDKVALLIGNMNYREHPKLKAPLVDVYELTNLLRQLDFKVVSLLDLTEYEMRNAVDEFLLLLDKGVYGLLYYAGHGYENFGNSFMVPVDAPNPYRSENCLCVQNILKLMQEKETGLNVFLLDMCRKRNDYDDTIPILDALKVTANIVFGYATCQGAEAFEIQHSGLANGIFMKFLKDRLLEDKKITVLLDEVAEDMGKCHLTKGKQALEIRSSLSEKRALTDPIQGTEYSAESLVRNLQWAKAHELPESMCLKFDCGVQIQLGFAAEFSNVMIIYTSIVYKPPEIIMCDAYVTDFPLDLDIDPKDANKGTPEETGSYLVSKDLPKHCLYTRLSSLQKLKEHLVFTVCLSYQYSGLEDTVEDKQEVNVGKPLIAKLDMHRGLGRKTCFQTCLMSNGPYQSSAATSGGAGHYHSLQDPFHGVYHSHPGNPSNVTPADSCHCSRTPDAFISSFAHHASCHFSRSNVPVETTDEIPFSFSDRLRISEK

IC50 [nM]	Compound
100 to 1000	CC(O)c1cc2ncc3c(n2n1)C(C)(C(F)(F)F)CN3C(=O)Nc1cnc(-n2nccn2)c(Cl)c1 (centres unmarked) [compound 80, N-(5-chloro-6-(2H-1,2,3-triazol-2-yl)pyridin-3-yl)-2-(1-hydroxyethyl)-8-methyl-8-(trifluoromethyl)-7,8-dihydro-6H-pyrazolo[1,5-a]pyrrolo[2,3-e]pyrimidine-6-carboxamide]
10 to 100	C[C@]1(C(F)(F)F)CN(C(=O)Nc2cnc(-n3nccn3)c(C#N)c2)c2cnc3cc(F)nn3c21 [compound 90, (S)-N-(5-cyano-6-(2H-1,2,3-triazol-2-yl)pyridin-3-yl)-2-fluoro-8-methyl-8-(trifluoromethyl)-7,8-dihydro-6H-pyrazolo[1,5-a]pyrrolo[2,3-e]pyrimidine-6-carboxamide]

More lines, now with the values behind:

Compound	IC50 [nM]
Cc1cc(NC(=O)N2C[C@@](C)(C(F)(F)F)c3c2cnc2cc(Cl)nn32)cc(OC[C@H](C)N)n1 [compound 58, (R)-N-(2-((S)-2-aminopropoxy)-6-methylpyridin-4-yl)-2-chloro-8-methyl-8-(trifluoromethyl)-7,8-dihydro-6H-pyrazolo[1,5-a]pyrrolo[2,3-e]pyrimidine-6-carboxamide]	10 to 100
CC(C)(O)c1cc(NC(=O)N2C[C@@](C)(C(F)(F)F)c3c2cnc2cc(Cl)nn32)cc(C(F)(F)F)n1 [compound 78, (R)-2-chloro-N-(2-(2-hydroxypropan-2-yl)-6-(trifluoromethyl)pyridin-4-yl)-8-methyl-8-(trifluoromethyl)-7,8-dihydro-6H-pyrazolo[1,5-a]pyrrolo[2,3-e]pyrimidine-6-carboxamide]	100 to 1000
COc1nc(OC2CN(C)C2)c(NC(=O)N2C[C@@](C)(C(F)(F)F)c3c2cnc2cc(Cl)nn32)cc1Cl [compound 81, (R)-2-chloro-N-(5-chloro-6-methoxy-2-((1-methylazetidin-3-yl)oxy)pyridin-3-yl)-8-methyl-8-(trifluoromethyl)-7,8-dihydro-6H-pyrazolo[1,5-a]pyrrolo[2,3-e]pyrimidine-6-carboxamide]	100 to 1000
C[C@@]1(C(F)(F)F)CN(C(=O)Nc2cc(NC3COC3)nc(C(F)(F)F)c2)c2cnc3cc(Cl)nn3c21 [compound 99, (R)-2-chloro-8-methyl-N-(2-(oxetan-3-ylamino)-6-(trifluoromethyl)pyridin-4-yl)-8-(trifluoromethyl)-7,8-dihydro-6H-pyrazolo[1,5-a]pyrrolo[2,3-e]pyrimidine-6-carboxamide]	100 to 1000

System: IL10 secretion, OCI-LY10 cells
Test: Human IL10 secretion assay, Assay 1 (HTRF)
Type: cell-based
Conditions: 24 h incubation, read-out: IL-10 Secretion IC50 [nM] Assay 1
Protocol: IL10 is one of the cytokines that are regulated via activation of NF-kB signaling. For example, in ABC-DLBCL cell lines, the activated NF-kB signaling leads to increased IL10 secretion. Inhibition of NF-kB signaling has been shown leading to decreased IL10 secretion.
Assay 1: OCI-LY10 cells were seeded in IMEM supplemented with 20% fetal bovine serum at 3×10^5 cells per well in 96-well round bottom plates (Corning 3799, Corning), treated with 100 nL of 3-fold serial compound dilutions, starting at 10 mM. The final vehicle concentration was 0.1% DMSO in all wells. After 24 h incubation, the cells were transferred to 96-PCR plates (Axygen: PCR-96-FLT-C) and centrifuged, then 16 μL of cell culture media was transferred to HTRF plates and IL10 levels were measured using human IL-10 Assay Kits (Cisbio) using HTRF format. The signals were transformed to percentage of remaining activity by using the high control (HC, median of signal from wells containing cells treated with DMSO) and low control (LC, median of signal from wells with no cells). IC50 values (nM) were determined using 4-parametric curve-fitting and Hill coefficient were obtained using Graph Pad Prism (Graph Pad software, Inc, USA) with non-linear regression analysis.

IC50 [nM]	Compound
100 to 1000	Cc1cc2ncc3c(n2n1)C(C(F)(F)F)CCN3C(=O)Nc1cnc(-n2nccn2)c(Cl)c1 (centres unmarked) [compound 10, N-(5-chloro-6-(2H-1,2,3-triazol-2-yl)pyridin-3-yl)-2-methyl-9-(trifluoromethyl)-8,9-dihydropyrazolo[1,5-a]pyrido[2,3-e]pyrimidine-6(7H)-carboxamide]
10 to 100	COc1ncc(NC(=O)N2C[C@@](C)(C(F)(F)F)c3c2cnc2cc(Cl)nn32)cc1Cl [compound 18, (R)-2-chloro-N-(5-chloro-6-methoxypyridin-3-yl)-8-methyl-8-(trifluoromethyl)-7,8-dihydro-6H-pyrazolo[1,5-a]pyrrolo[2,3-e]pyrimidine-6-carboxamide]
100 to 1000	COc1ccc(NC(=O)N2C[C@@](C)(C(F)(F)F)c3c2cnc2cc(Cl)nn32)cc1Cl [compound 19, (R)-2-chloro-N-(3-chloro-4-methoxyphenyl)-8-methyl-8-(trifluoromethyl)-7,8-dihydro-6H-pyrazolo[1,5-a]pyrrolo[2,3-e]pyrimidine-6-carboxamide]
10 to 100	C[C@@]1(C(F)(F)F)CN(C(=O)Nc2cnc(-n3ccnn3)c(C(F)F)c2)c2cnc3cc(Cl)nn3c21 [compound 36, (R)-2-chloro-N-(5-(difluoromethyl)-6-(1H-1,2,3-triazol-1-yl)pyridin-3-yl)-8-methyl-8-(trifluoromethyl)-7,8-dihydro-6H-pyrazolo[1,5-a]pyrrolo[2,3-e]pyrimidine-6-carboxamide]
10 to 100	C[C@@]1(C(F)(F)F)CN(C(=O)Nc2cnc(-n3nccn3)c(C#N)c2)c2cnc3cc(Cl)nn3c21 [compound 41, (R)-2-chloro-N-(5-cyano-6-(2H-1,2,3-triazol-2-yl)pyridin-3-yl)-8-methyl-8-(trifluoromethyl)-7,8-dihydro-6H-pyrazolo[1,5-a]pyrrolo[2,3-e]pyrimidine-6-carboxamide]
10 to 100	COCc1cnn(-c2ncc(NC(=O)N3C[C@@](C)(C(F)(F)F)c4c3cnc3cc(Cl)nn43)cc2Cl)n1 [compound 79, (R)-2-chloro-N-(5-chloro-6-(4-(methoxymethyl)-2H-1,2,3-triazol-2-yl)pyridin-3-yl)-8-methyl-8-(trifluoromethyl)-7,8-dihydro-6H-pyrazolo[1,5-a]pyrrolo[2,3-e]pyrimidine-6-carboxamide]

Second part, the compound before the results:

Compound	IC50 [nM]
CC1(C)CCN(C(=O)Nc2cnc(-n3nccn3)c(Cl)c2)c2cnc3cc(Cl)nn3c21 [compound 7, 2-chloro-N-(5-chloro-6-(2H-1,2,3-triazol-2-yl)pyridin-3-yl)-9,9-dimethyl-8,9-dihydropyrazolo[1,5-a]pyrido[2,3-e]pyrimidine-6(7H)-carboxamide]	10 to 100
Cc1cc(NC(=O)N2C[C@@](C)(C(F)(F)F)c3c2cnc2cc(Cl)nn32)cnc1-n1nccn1 [compound 21, (R)-2-chloro-8-methyl-N-(5-methyl-6-(2H-1,2,3-triazol-2-yl)pyridin-3-yl)-8-(trifluoromethyl)-7,8-dihydro-6H-pyrazolo[1,5-a]pyrrolo[2,3-e]pyrimidine-6-carboxamide]	10 to 100
C[C@@]1(C(F)(F)F)CN(C(=O)Nc2ccnc(C(F)(F)F)c2)c2cnc3cc(Cl)nn3c21 [compound 27, (R)-2-chloro-8-methyl-8-(trifluoromethyl)-N-(2-(trifluoromethyl)pyridin-4-yl)-7,8-dihydro-6H-pyrazolo[1,5-a]pyrrolo[2,3-e]pyrimidine-6-carboxamide]	10 to 100
C[C@@]1(C(F)(F)F)CN(C(=O)Nc2cnc(-n3ccnn3)c(C(F)(F)F)c2)c2cnc3cc(Cl)nn3c21 [compound 44, (R)-N-(6-(1H-1,2,3-triazol-1-yl)-5-(trifluoromethyl)pyridin-3-yl)-2-chloro-8-methyl-8-(trifluoromethyl)-7,8-dihydro-6H-pyrazolo[1,5-a]pyrrolo[2,3-e]pyrimidine-6-carboxamide]	10 to 100
C[C@@]1(C(F)(F)F)CN(C(=O)Nc2cnc(-n3cc(O)cn3)c(Cl)c2)c2cnc3cc(Cl)nn3c21 [compound 48]	10 to 100
C[C@@]1(C(F)(F)F)CN(C(=O)Nc2cnc(-n3cc(CO)cn3)c(Cl)c2)c2cnc3cc(Cl)nn3c21 [compound 57, (R)-2-chloro-N-(5-chloro-6-(4-(hydroxymethyl)-1H-pyrazol-1-yl)pyridin-3-yl)-8-methyl-8-(trifluoromethyl)-7,8-dihydro-6H-pyrazolo[1,5-a]pyrrolo[2,3-e]pyrimidine-6-carboxamide]	10 to 100
C[C@@]1(C(F)(F)F)CN(C(=O)Nc2ccnc(C(F)F)c2)c2cnc3cc(Cl)nn3c21 [compound 60, (R)-2-chloro-N-(2-(difluoromethyl)pyridin-4-yl)-8-methyl-8-(trifluoromethyl)-7,8-dihydro-6H-pyrazolo[1,5-a]pyrrolo[2,3-e]pyrimidine-6-carboxamide]	10 to 100
COc1c(Cl)cc(NC(=O)N2C[C@@](C)(C(F)(F)F)c3c2cnc2cc(Cl)nn32)nc1O[C@H]1CCNC1 [compound 63, (R)-2-chloro-N-(4-chloro-5-methoxy-6-(((S)-pyrrolidin-3-yl)oxy)pyridin-2-yl)-8-methyl-8-(trifluoromethyl)-7,8-dihydro-6H-pyrazolo[1,5-a]pyrrolo[2,3-e]pyrimidine-6-carboxamide]	10 to 100
COc1cnc(C(F)(F)F)cc1NC(=O)N1C[C@@](C)(C(F)(F)F)c2c1cnc1cc(Cl)nn21 [compound 66, (R)-2-chloro-N-(5-methoxy-2-(trifluoromethyl)pyridin-4-yl)-8-methyl-8-(trifluoromethyl)-7,8-dihydro-6H-pyrazolo[1,5-a]pyrrolo[2,3-e]pyrimidine-6-carboxamide]	100 to 1000
C[C@@]1(C(F)(F)F)CN(C(=O)Nc2cc(N=S(C)(C)=O)nc(C(F)(F)F)c2)c2cnc3cc(Cl)nn3c21 [compound 83]	100 to 1000
C[C@@]1(C(F)(F)F)CN(C(=O)Nc2cnc(N=S(C)(C)=O)c(Cl)c2)c2cnc3cc(Cl)nn3c21 [compound 85]	100 to 1000
